Consider 35 compounds from patent US20050215614A1, “Substituted indoles and their use as hcv inhibitors” (Rigel Pharmaceuticals, Inc., priority 2003, published 2005).

The test system of one test is HCV replicon. Description: HCV Replicon Assay (luciferase, 5-2 Luc replicon cells). Type of test: cell-based. The settings on record: 5-2 Luc replicon cells (Huh7), 24-48 hours with compound, luciferase counts. In outline:
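Huh7-derived 5-2 Luc replicon cells were seeded at 5000-7500 cells/well, grown 24 h at 37° C. and 5% CO2, then exposed to serial compound concentrations for 24-48 hours.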
In general terms: In antiviral work, replicon cells carry a viral genome segment that copies itself.
Turning to `Cc1cc2cc(NC(=O)C3CCCC3)ccc2n1C(=O)c1c(Cl)cccc1Cl` [Compound 16a-1, 5-Cyclopentanecarbonylamino-1-(2′,6′-dichlorobenzoyl)-2-methylindole], the “Activity (concentration of inhibitory activity)” value is given as “a (“a” indicates inhibitory activity at a concentration of less than 10 micromolar)”.

With `O=C(Cc1cccnc1)Nc1ccc2c(ccn2C(=O)c2c(Cl)cccc2Cl)c1` [Compound 255], the “Activity (concentration of inhibitory activity)” value is on record as “b (“b” indicates activity is at a concentration greater than 10 micromolar)”.

In the case of `Cc1cc2cc(NC(=O)c3sccc3Cl)ccc2n1C(=O)c1c(Cl)cccc1Cl` [Compound 256], the “Activity (concentration of inhibitory activity)” value is recorded as “b (“b” indicates activity is at a concentration greater than 10 micromolar)”.

As to `Cc1cc2cc(NC(=O)c3cccnc3)ccc2n1C(=O)c1c(F)cccc1C(F)(F)F` [Compound 257], the “Activity (concentration of inhibitory activity)” value is “b (“b” indicates activity is at a concentration greater than 10 micromolar)”.

On to `O=C(Nc1ccc2c(ccn2C(=O)c2c(Cl)cccc2Cl)c1)C1CCC1` [Compound 258], for which the “Activity (concentration of inhibitory activity)” value is “b (“b” indicates activity is at a concentration greater than 10 micromolar)”.

In the case of `Cc1cc2cc(NC(=O)C3CC3)ccc2n1C(=O)c1ccccc1` [Compound 259], the “Activity (concentration of inhibitory activity)” value is listed as “b (“b” indicates activity is at a concentration greater than 10 micromolar)”.

On to `Cc1cc2cc(NC(=O)C3CCCCC3)ccc2n1C(=O)c1ccccc1` [Compound 260], for which the “Activity (concentration of inhibitory activity)” value is listed as “b (“b” indicates activity is at a concentration greater than 10 micromolar)”.

Turning to `Cc1cccc(F)c1C(=O)n1c(C)cc2cc(NC(=O)C3CCCCC3)ccc21` [Compound 262], the “Activity (concentration of inhibitory activity)” value is recorded as “b (“b” indicates activity is at a concentration greater than 10 micromolar)”.

`Cc1cc2cc(NC(=O)CBr)ccc2n1C(=O)c1c(Cl)cccc1Cl` [Compound 263]: the “Activity (concentration of inhibitory activity)” value is reported as “b (“b” indicates activity is at a concentration greater than 10 micromolar)”.

On to `Cc1cc2cc(NC(=O)C3CCCCC3)ccc2n1C(=O)c1c(Cl)cncc1Cl` [Compound 265], for which the “Activity (concentration of inhibitory activity)” value is on record as “b (“b” indicates activity is at a concentration greater than 10 micromolar)”.

Regarding `Cc1cc2cc(NC(=O)C3CCNCC3)ccc2n1C(=O)c1c(Cl)cccc1Cl` [Compound 266], the “Activity (concentration of inhibitory activity)” value was “a (“a” indicates inhibitory activity at a concentration of less than 10 micromolar)”.

With `Cc1cc2cc(NC(=O)C3CCCCC3)ccc2n1C(=O)c1c(Cl)cccc1Cl` [Compound 267], the “Activity (concentration of inhibitory activity)” value was “b (“b” indicates activity is at a concentration greater than 10 micromolar)”.

With `Cc1cc2cc(NC(=O)[C@H]3CCCN3)ccc2n1C(=O)c1c(Cl)cccc1Cl` [Compound 268], the “Activity (concentration of inhibitory activity)” value is “b (“b” indicates activity is at a concentration greater than 10 micromolar)”.

With `Cc1cc2cc(NC(=O)C3CCN(C(=O)OC(C)(C)C)CC3)ccc2n1C(=O)c1c(F)cccc1Cl` [Compound 269], the “Activity (concentration of inhibitory activity)” value is reported as “b (“b” indicates activity is at a concentration greater than 10 micromolar)”.

Take `Cc1cccc(C)c1C(=O)n1c(C)cc2cc(NC(=O)[C@H]3CCCN3)ccc21` [Compound 270]: the “Activity (concentration of inhibitory activity)” value is recorded as “b (“b” indicates activity is at a concentration greater than 10 micromolar)”.

Regarding `Cc1cc2cc(NC(=O)[C@H]3CCCN3)ccc2n1C(=O)c1c(F)cccc1Cl` [Compound 271], the “Activity (concentration of inhibitory activity)” value is given as “b (“b” indicates activity is at a concentration greater than 10 micromolar)”.

Consider `Cc1cc2cc(NC(=O)C3CCCNC3)ccc2n1C(=O)c1c(F)cccc1Cl` (stereo not shown) [Compound 272], for which the “Activity (concentration of inhibitory activity)” value is given as “b (“b” indicates activity is at a concentration greater than 10 micromolar)”.

With `Cc1cc2cc(NC(=O)C3CCNCC3)ccc2n1C(=O)c1c(F)cccc1Cl` [Compound 273], the “Activity (concentration of inhibitory activity)” value is “b (“b” indicates activity is at a concentration greater than 10 micromolar)”.

Regarding `CCc1ccc(C(=O)n2c(C)cc3cc(NC(=O)C4CCCC4)ccc32)cc1` [Compound 274], the “Activity (concentration of inhibitory activity)” value is listed as “b (“b” indicates activity is at a concentration greater than 10 micromolar)”.

As to `Cc1cc2cc(NC(=O)C3CCCC3)ccc2n1C(=O)c1cc(Cl)cc(Cl)c1` [Compound 275], the “Activity (concentration of inhibitory activity)” value is reported as “b (“b” indicates activity is at a concentration greater than 10 micromolar)”.

Turning to `Cc1cc2cc(NC(=O)C3CCCC3)ccc2n1C(=O)c1ccc(Cl)cc1` [Compound 276], the “Activity (concentration of inhibitory activity)” value was “b (“b” indicates activity is at a concentration greater than 10 micromolar)”.

Consider `Cc1ccccc1C(=O)n1c(C)cc2cc(NC(=O)C3CCCC3)ccc21` [Compound 277], for which the “Activity (concentration of inhibitory activity)” value is listed as “b (“b” indicates activity is at a concentration greater than 10 micromolar)”.

On to `CC(C)(C)c1cc2cc(NC(=O)c3ccc(C(F)(F)F)cc3)ccc2[nH]1` [Compound 278], for which the “Activity (concentration of inhibitory activity)” value is listed as “a (“a” indicates inhibitory activity at a concentration of less than 10 micromolar)”.

Take `CC(C)(C)c1cc2cc(NC(=O)c3cc(Cl)nc(Cl)c3)ccc2[nH]1` [Compound 279]: the “Activity (concentration of inhibitory activity)” value was “a (“a” indicates inhibitory activity at a concentration of less than 10 micromolar)”.

Take `COc1cc(C(=O)Nc2ccc3[nH]c(C(C)(C)C)cc3c2)cc(OC)c1OC` [Compound 280]: the “Activity (concentration of inhibitory activity)” value is given as “b (“b” indicates activity is at a concentration greater than 10 micromolar)”.

For `CC(C)(C)c1cc2cc(NC(=O)c3cccs3)ccc2[nH]1` [Compound 281], the “Activity (concentration of inhibitory activity)” value is “a (“a” indicates inhibitory activity at a concentration of less than 10 micromolar)”.

As to `CCC(C)(C)c1cc2cc(NC(=O)C(C)(C)C)ccc2[nH]1` [Compound 282], the “Activity (concentration of inhibitory activity)” value is “b (“b” indicates activity is at a concentration greater than 10 micromolar)”.

On to `CCC(C)(C)c1cc2cc(NC(=O)/C=C/c3ccccc3)ccc2[nH]1` [Compound 283], for which the “Activity (concentration of inhibitory activity)” value is listed as “b (“b” indicates activity is at a concentration greater than 10 micromolar)”.

Turning to `CCC(C)(C)c1cc2cc(NC(=O)c3ccc(C(C)(C)C)cc3)ccc2[nH]1` [Compound 284], the “Activity (concentration of inhibitory activity)” value is reported as “b (“b” indicates activity is at a concentration greater than 10 micromolar)”.

`CCC(C)(C)c1cc2cc(NC(=O)c3c(F)cccc3F)ccc2[nH]1` [Compound 285]: the “Activity (concentration of inhibitory activity)” value is “a (“a” indicates inhibitory activity at a concentration of less than 10 micromolar)”.

Turning to `CCC(C)(C)c1cc2cc(NC(=O)c3cccc(C(F)(F)F)c3)ccc2[nH]1` [Compound 286], the “Activity (concentration of inhibitory activity)” value is recorded as “a (“a” indicates inhibitory activity at a concentration of less than 10 micromolar)”.

For `CCC(C)(C)c1cc2cc(NC(=O)C(c3ccccc3)c3ccccc3)ccc2[nH]1` [Compound 287], the “Activity (concentration of inhibitory activity)” value was “b (“b” indicates activity is at a concentration greater than 10 micromolar)”.

In the case of `CCC(C)(C)c1cc2cc(NC(=O)c3cccs3)ccc2[nH]1` [Compound 288], the “Activity (concentration of inhibitory activity)” value is listed as “b (“b” indicates activity is at a concentration greater than 10 micromolar)”.

In the case of `CCC(C)(C)c1cc2cc(NC(=O)c3cc(Cl)nc(Cl)c3)ccc2[nH]1` [Compound 289], the “Activity (concentration of inhibitory activity)” value is given as “a (“a” indicates inhibitory activity at a concentration of less than 10 micromolar)”.

For `CC(C)(C)c1cc2cc(NC(=O)C3CC3)ccc2[nH]1` [Compound 290], the “Activity (concentration of inhibitory activity)” value is given as “a (“a” indicates inhibitory activity at a concentration of less than 10 micromolar)”.

The next test has as its system HCV replicon. The experiment in a line: Immunoblotting Assay (9-13 replicon cells). Type of test: cell-based. The following applies: 9-13 replicon cells (Huh7), 48 hours with compound. The protocol: Actively dividing 9-13 replicon cells (Huh7 cells comprising an HCV replicon) were seeded at the density of 1×10^5 cells/well in the volume of 2 ml/well into 6 well plate(s). The cells were then incubated at 37° C. and 5% CO2 for 24 hours.
Various concentrations of compounds (in the volume of 10 μl) were added into each well 24 hours after seeding the cells. The cells were incubated with the compounds for another 48 hours.
Protein samples were prepared from the cultured cells and resolved on a SDS-PAGE gel.
After electrophoresis, the protein samples on the SDS-PAGE gel were transferred to a nitrocellulose membrane.
The membrane was blocked with 5% non-fat milk in PBS for 1 hr at room temperature.
Primary antibody incubation was performed for 1 hour at room temperature before the membrane was washed for 3 times with PBST (PBS plus 0.1% Tween 20), 15 minutes each.
Horse Radish Peroxidase conjugated secondary antibody incubation was performed for 1 hour at room temperature before the membrane was washed for 3 times with PBST (PBS plus 0.1% Tween 20), 15 minutes each.
The membrane was then soaked in substrate solution (Pierce) and exposed to a film.
In general terms: Immunoblotting shows a protein as a band on a membrane.
On to `CC(C)(C)c1cc2cc(NC(=O)c3cccs3)ccc2[nH]1` [Compound 281], for which the “Activity (concentration of inhibitory activity)” value was “a (“a” indicates inhibitory activity at a concentration of less than 10 micromolar)”.

The test system of a further test is HCV replicon. Description: TaqMan RT-PCR Assay (9-13 replicon cells). Format: cell-based. The settings on record: 24-48 hours with compound. On the procedure: Actively dividing 9-13 replicon cells were seeded at the density of 3×10^4 cells/well in the volume of 1 ml/well into 24 well plate(s). The cells were then incubated at 37° C. and 5% CO2 for 24
Various concentrations of compounds (in the volume of 10 μl) were added into each well 24 hours after seeding the cells. The cells were incubated with the compounds for another 24-48 hours.
After incubating the 9-13 replicon cells with the compounds for 24-48 hours, media were aspirated off and RNA samples were prepared from each well.
TaqMan® (Roche Molecular Systems) one step RT-PCR was performed using the RNA samples according to the manufacturer's manual. Briefly, properly diluted RNA sample, upstream primer, downstream primer, FAM-labeled probe oligo were mixed and water was added to make up the volume to 25 μl. Equal volume of 2× TaqMan Master Mix were added and the reaction was performed in an ABI Prism 7700 Sequence Detector (Applied Biosystems).
In the case of `Cc1cc2cc(NC(=O)C3CCCC3)ccc2n1C(=O)c1c(Cl)cccc1Cl` [Compound 16a-1, 5-Cyclopentanecarbonylamino-1-(2′,6′-dichlorobenzoyl)-2-methylindole], the “Activity (concentration of inhibitory activity)” value is “a (“a” indicates inhibitory activity at a concentration of less than 10 micromolar)”.
